Consider 2 molecules from patent US10172362B2, “Biofilms, components and methods of use to reduce biofouling and contamination” (THE PENN STATE RESEARCH FOUNDATION, priority 2015, dated 2019).

Data set [1] in a line: Rejection experiments with NF90 membranes (no biofilm). Particulars: 1 mM and 10 mM feed in 5 mM NaCl (pH 9.0), 30 min. The format is physicochemical. On the procedure: Beneficial Biofilm Degrades Epichlorohydrin. Epichlorohydrin is an emerging water contaminant for which treatment techniques are not well studied. […] Measurements were taken 30 min after permeation began. Feed was in 5 mM NaCl (pH 9.0). Furthermore, when grown on the NF90 membrane, the beneficial biofilm that produces EH degraded epichlorohydrin by more than 39±4% in single pass batch filtration (See FIGS. 29 and 30). […] Biofilms grown for 24 h on NF90 membranes were challenged with 10 mM epichlorohydrin in 5 mM NaCl feed solution (pH 9). The left and adjacent right bars indicate the molar removal of epichlorohydrin (%) at 20 min and 30 min respectively, after starting filtration. The removal of epichlorohydrin by adsorption to cellular biomass was estimated using a dead cell control experiment. EH− is E. coli TG1/pBdcAE50Q-lasI-lasR/pBNos and EH+ is E. coli TG1/pBdcAE50Q-lasI-lasR/pBNos-echA. Dead cells were obtained by autoclaving overnight cultures of the EH+ strain. The error bars are standard deviation for three independent colonies.

Another data set concerns biofilm dispersal. Conditions: cited from earlier work.

Consider `ClCC1CO1` (centres unmarked) [Epichlorohydrin], for which, in data set [1], the “passage through NF90 membrane” value was “passes through the membrane used”.

B1: BdcA E50Q variant (protein, UniProt P39333 1-237, looked up, variant E50Q)
Cyclic-di-GMP-binding biofilm …: MGAFTGKTVLILGGSRGIGAAIVRRFVTDGANVRFTYAGSKDAAKRLAQQTGATAVFTDSADRDAVIDVVRKSGALDILVVNAGIGVFGEALELNADDIDRLFKINIHAPYHASVEAARQMPEGGRILIIGSVNGDRMPVAGMAAYAASKSALQGMARGLARDFGPRGITINVVQPGPIDTDANPANGPMRDMLHSLMAIKRHGQPEEVAGMVAWLAGPEASFVTGAMHTIDGAFGA
With B1, the “higher levels of biofilm dispersal” value in the data set on biofilm dispersal was “six-fold higher”.
